Source: paper PMC12676205, “New Se‐Compounds With Antileishmanial, Antitumor, and Carbonic Anhydrase Inhibitory Properties” (Archiv Der Pharmazie, 2025)
Read-outs that look alike come from different tables or passages of the source.

Assays:
hCA I = target: T1, hCA I (Homo sapiens, UniProt P00915); test: hCA I inhibition, stopped-flow CO2 hydration assay; format: biochemical; conditions: stopped flow technique, mean from three assays
T1 construct: made in house
Procedure: (§5) An Applied Photophysics stopped‐flow instrument was used to assay the CA‐catalyzed CO2 hydration activity [52]. […] The uncatalyzed rates were determined in the same manner and subtracted from the total observed rates. Stock solutions of the inhibitor (0.1 mM) were prepared in distilled–deionized water, and dilutions up to 0.01 nM were done thereafter with the assay buffer. Inhibitor and enzyme solutions were preincubated together for 15 min at room temperature before the assay, to allow for the formation of the E–I complex. The inhibition constants were obtained by Nonlinear least‐squares methods using PRISM 3 and the Cheng‐Prusoff equation as reported earlier and represent the mean from at least three different determinations. All CA isoforms were recombinant proteins obtained in‐house, as reported earlier [54, 55, 56].

hCA II = target: T2, hCA II (Homo sapiens, UniProt P00918); test: hCA II inhibition, stopped-flow CO2 hydration assay; format: biochemical; conditions: stopped flow technique, mean from three assays
T2 construct: made in house
Procedure: as §5

hCA IX = target: T3, hCA IX (Homo sapiens, UniProt Q16790); test: biochemical; conditions: stopped flow technique, mean from three assays
T3 construct: made in house
Procedure: as §5

Leukemia subpanel = test: NCI-60 one-dose screen, leukemia subpanel; format: cell-based, human; conditions: 10 µM, 48 h
Procedure: (§1) To explore the potential antiproliferative properties of the newly synthesized derivatives, they were submitted to the National Cancer Institute's (NCI) Developmental Therapeutics Program (DTP) for screening at 10 μM in a panel of approximately 60 human cancer cell lines from different cancer types. The results are reported as the growth percentage (GP), which is the growth of the treated cells with each compound for 48 h compared to the untreated controls (Figure 2). […] The initial screening results are summarized in Figure 2, and the mean GP values of each subpanel are depicted in Figure 3. The full reports are compiled in the Supplementary Section.
(§2) All the reported selenoesters (1–6) were submitted to the DTP of NCI. First, they were screened at a single dose (10^−5 M) against a panel of 60 cancer cell lines derived from different tumor types following the methodology available (https://dtp.cancer.gov/discovery_development/nci-60/methodology.htm). As all the compounds satisfied the threshold inhibition criteria established, they were further assessed at five concentrations (0.01, 0.1, 1, 10, and 100 µM) against the same cell panel to obtain their corresponding dose–response curves and three antitumor parameters (GI50, TGI, and LC50) by regression. GraphPad Prism 7.0 Software was used to represent the corresponding graphs.

Colon subpanel [1] = test: NCI-60 one-dose screen, colon subpanel; format: cell-based, human; conditions: 10 µM, 48 h
Procedure: as §1, §2

CNS subpanel = test: NCI-60 one-dose screen, CNS subpanel; format: cell-based, human; conditions: 10 µM, 48 h
Procedure: as §1, §2

[2] = tested on: NCI‐60 human cancer cell lines; test: NCI-60 five-dose assay, whole panel; format: cell-based; conditions: 48 h, bound for every subpanel
Procedure: (§3) All the compounds were selected for further testing since they fulfilled the set NCI one‐dose screening parameters for threshold inhibition. They were tested at five different concentrations (0.01, 0.1, 1, 10, and 100 μM) for 48 h against the same cell line panel and the dose–response curves along with three response parameters (50% growth inhibitory concentration [GI50], the 50% lethal concentration [LC50], and the total growth inhibition [TGI]) were calculated for every cancer cell line. The full reported data and corresponding graphs are compiled in Supporting Information S1. Average values of GI50, TGI, and LC50 values of all the reported selenoesters in all the subpanels are represented in Figure 4.
as §2

[3] = tested on: NSCL (non‐small‐cell lung cancer) subpanel; test: NCI-60 five-dose assay, NSCL subpanel; format: cell-based; conditions: Homo sapiens, 48 h; for GI50: read-out: Mean GI50 NSCL; for LC50 (50% lethal concentration): read-out: Mean LC50 NSCL
Procedure: as §3, §2

Colon subpanel [4] = test: NCI-60 five-dose assay, colon subpanel; format: cell-based; conditions: Homo sapiens, 48 h; for GI50: read-out: Mean GI50 Colon; for CC50: read-out: Mean LC50 Colon
Procedure: as §3, §2

Renal subpanel = test: NCI-60 five-dose assay, renal subpanel; format: cell-based; conditions: Homo sapiens, 48 h; for GI50: read-out: Mean GI50 Renal; for LC50: read-out: Mean LC50 Renal
Procedure: as §3, §2

Breast subpanel = test: NCI-60 five-dose assay, breast subpanel; format: cell-based; conditions: Homo sapiens, 48 h; for GI50: read-out: Mean GI50 Breast; for LC50: read-out: Mean LC50 Breast
Procedure: as §3, §2

[5] = tested on: L. infantum promastigotes; test: Leishmanicidal activity against promastigotes (MTT), L. infantum; format: cell-based, Leishmania infantum
Procedure: (§4) The synthesized compounds were tested for their antileishmanial activity against promastigotes of L. major and L. infantum at four concentrations (1, 10, 50, and 100 µM) for 48 h using the 3‐(4,5‐dimethylthiazol‐2‐yl)‐2,5‐diphenyltetrazolium bromide (MTT) assay. In this evaluation, the activity was expressed in IC50 (concentration inhibiting the parasite growth by 50%). […] The CC50 was defined as the concentration of selenoesters that led to a reduction in the viability of the macrophages, such that only 50% of the cells survived when compared to the control group. This cell line, derived from the blood of a human with acute monocytic leukemia, was chosen as it has been widely reported that it resembles tissue macrophages to various extents as well as supports the infection by numerous Leishmania promastigotes. The selectivity indexes (SIs) were calculated as the ratio between toxicity on macrophages (THP‐1 cells)/antileishmanial activity. The data for standard control drugs (miltefosine and paromomycin) are included for comparison purposes.
The promastigotes of L. major (clone VI, MHOM/IL/80/Friendlin) and L. infantum (BCN‐150) were grown at 26°C under continuous shaking in M199 1× medium (Sigma, USA). This media was supplemented with 10% of heat‐inactivated fetal bovine serum (FBS) (Gibco, USA), 0.0005% (w/v) hemin, 0.1 mM adenine, 25 mM HEPES (pH 7.2), 0.0001% (w/v) biotin, and 100 UI/mL penicillin and […] streptomycin (Gibco, USA).
The antileishmanial activity of the reported selenoesters was determined using the MTT assay as previously described during the logarithmic growth phase of the tested promastigotes of L. major and L. infantum. Briefly, the Leishmania parasites were seeded into 96‐well flat‐bottom plates (3 × 10^5 parasites/100 µL) and treated with four different concentrations ranging between 1 and 100 µM of each selenoester at 26°C for 48 h. Afterwards, 20 µL of MTT (5 mg/mL in PBS) was added to each well and incubated for 4 h under the same conditions. Then, 80 µL/well of DMSO was added to dissolve the resultant formazan crystals. The absorbances were determined on a Multiskan EX photometric plate reader for microplates at 540 nm. Three independent experiments performed in triplicate were carried out for each compound, and OriginPro 8.5.1 Software was used to calculate the IC50 values by fitting the data to a dose–inhibition sigmoid curve.

[6] = THP-1 cytotoxicity (MTT, PMA-differentiated macrophages); format: cell-based, human; conditions: human, THP-1 cells differentiated into macrophages with PMA, mean ± SD
Procedure: as §4
THP‐1 cells were seeded at a concentration of 8 × 10^4 cells per well in 96‐well plates and incubated with phorbol 12‐myristate 13‐acetate (PMA) (50 ng/mL) for 72 h (37°C and 5% CO2) to differentiate them into macrophages. After that, the culture medium was removed and the cells were treated with the reported selenoesters at different increasing concentrations ranging from 1 to 200 µM for 48 h at 37°C and 5% of CO2. Macrophages treated with DMSO (1%) were used as controls, and the compounds were dissolved in DMSO at a stock concentration of 10^−2 M. Afterward, the MTT assay was performed. Data were obtained from three independent experiments performed in triplicate. The absorbance was measured at 550 nm using a MultiskanEX photometric plate reader for microplates. The CC50 values were calculated using OriginPro 8.5.1. software by nonlinear curve fitting. SIs were calculated as the ratio of the CC50 values determined for the macrophages and the IC50 values obtained in each Leishmania promastigote. GraphPad Prism 7.0 Software was used to obtain the corresponding graphs.

[7] = Leishmania infantum, 48 h, mean ± SD, read-out: L. infantum IC50
[8] = 48 h, mean ± SD, read-out: L. infantum IC50
[9] = read-out: L. infantum IC50, 48 h, mean ± SD

T1 sequence (P00915 whole entry): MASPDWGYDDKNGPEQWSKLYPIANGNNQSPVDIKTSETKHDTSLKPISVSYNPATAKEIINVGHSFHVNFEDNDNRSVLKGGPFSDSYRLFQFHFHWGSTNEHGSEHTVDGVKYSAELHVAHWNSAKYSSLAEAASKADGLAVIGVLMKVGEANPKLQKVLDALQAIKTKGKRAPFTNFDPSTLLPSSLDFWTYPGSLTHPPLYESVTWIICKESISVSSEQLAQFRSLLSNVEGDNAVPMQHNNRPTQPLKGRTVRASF

| SMILES | Ki (hCA I) [µM] | Ki (hCA II) [µM] | Ki (hCA IX) [µM] | average growth cell value, Leukemia (Leukemia subpanel) [%] | average growth cell value, Colon (Colon subpanel [1]) [%] | average growth cell value, CNS (CNS subpanel) [%] | mean TGI values against all the subpanels tested [2] | GI50 [3] [µM] | LC50 (50% lethal concentration) [3] [µM] | GI50 (Colon subpanel [4]) [µM] | CC50 (Colon subpanel [4]) [µM] | GI50 (Renal subpanel) [µM] | LC50 (Renal subpanel) [µM] | GI50 (Breast subpanel) [µM] | LC50 (Breast subpanel) [µM] | IC50 [5, 7] [µM] | CC50 at 48 h [6] [µM] | IC50 [5, 8] [µM] | IC50 [5, 9] [µM] | GI50 ([2]; Homo sapiens, read-out: mean GI50 values in all the cancer subpanels tested) [µM] |
| --- | --- | --- | --- | --- | --- | --- | --- | --- | --- | --- | --- | --- | --- | --- | --- | --- | --- | --- | --- | --- |
| N#Cc1ccc(NC(=O)C[Se]C(=O)c2ccccc2)cc1C(F)(F)F [Compound 1, Se‐(2‐((4‐cyano‐3‐(trifluoromethyl)phenyl)amino)‐2‐oxoethyl)benzoselenoate] | > 100 | 80.4 | 57.2 | -96.53 | -95.24 | -94.57 | below 5 µM | 1.54 | 5.61 | 1.98 | 6.79 | 1.57 | 6.11 | 1.61 | 8.02 | 29.2 ± 2.65 |  |  |  |  |
| O=C(C[Se]C(=O)c1ccco1)Nc1ccc([N+](=O)[O-])c(C(F)(F)F)c1 [Compound 5, Se‐(2‐((4‐nitro‐3‐(trifluoromethyl)phenyl)amino)‐2‐oxoethyl)furan‐2‐carboselenoate] | > 100 | 83.3 | 21.1 | 6.59 | -17.82 | -59.61 |  | 1.9 |  | 2.58 | 46.5 | 2.2 |  | 2.01 |  | 32.9 ± 8.25 | 108 ± 5.53 |  |  |  |
| O=C(C[Se]C(=O)c1ccccc1)Nc1ccc([N+](=O)[O-])c(C(F)(F)F)c1 [Compound 2, Se‐(2‐((4‐nitro‐3‐(trifluoromethyl)phenyl)amino)‐2‐oxoethyl)benzoselenoate] | > 100 | 50.4 | 76.3 | -94.69 | -81.88 | -94.42 | below 5 µM | 1.41 | 5.36 | 2.11 | 7.68 | 1.38 | 5.2 | 1.48 | 7.68 | 29.4 ± 2.1 |  |  |  |  |
| O=C(C[Se]C(=O)c1ccccc1)Nc1cccc(OC(F)(F)F)c1 [Compound 3, Se‐(2‐oxo‐2‐((3‐(trifluoromethoxy)phenyl)amino)ethyl)benzoselenoate] | > 100 | 82.4 | 80.2 | -36.81 | 25.15 | -78.56 |  | 2.3 | 13.2 | 8.52 | 43.9 | 2.33 | 15.4 | 2.62 | 22.6 | 6 to 10 | ≥ 200 | 6.59 ± 3.73 | < 10 |  |
| O=C(C[Se]C(=O)c1ccco1)Nc1cccc(OC(F)(F)F)c1 [Compound 6, Se‐(2‐oxo‐2‐((3‐(trifluoromethoxy)phenyl)amino)ethyl)furan‐2‐carboselenoate] | > 100 | 8.2 | 35.9 | 39.71 | 31.61 | -34.28 |  | 3.64 |  | 7.93 | 67.3 | 5.62 |  | 3.08 |  | 6 to 10 | 38.7 ± 6.71 | 5.99 ± 2.33 | < 10 | < 10 |
